From patent US7491821B2, “Inhibitors of P2X3” (Roche Palo Alto LLC, priority 2005, dated 2009)
Where a name gives a salt, the structure may show the parent alone.

Row | SMILES | melting point [°C]
1 | CC(=O)N1CCN(C[C@@H](C)NC(=O)c2cc3c(-c4ccccc4)nn(C)c3s2)CC1 (as salt: salt) [compound 93, (R)-1-methyl-3-phenyl-1H-thieno[2,3-c]pyrazole-5-carboxylic acid [2-(4-acetyl-piperazin-1-yl)-1-methyl-ethyl]-amide] | 133.9 to 139.9
2 | CC(=O)N1CCN(C[C@H](C)NC(=O)c2cc3c(-c4ccccc4)nn(C)c3s2)CC1 (as salt: salt) [compound 94, (S)-1-methyl-3-phenyl-1H-thieno[2,3-c]pyrazole-5-carboxylic acid [2-(4-acetyl-piperazin-1-yl)-1-methyl-ethyl]-amide] | 133.5 to 140.1
